Reference: paper PMC8391922, “The Combined Effect of Branching and Elongation on the Bioactivity Profile of Phytocannabinoids. Part I: Thermo-TRPs” (Biomedicines, 2021)
“And” between values parts separate entries of the source, which are not always exact repeats. Identical values can stand only once. Like-named read-outs stand apart in the source and are kept apart here.

What was measured:
rat TRPA1 [1] = target: T1, rat TRPA1 (Rattus norvegicus, UniProt Q6RI86); design: method as in PMID 21175579; details: cited from earlier work; for TRPA1 Efficacy (%ITC 100 μM): percentage of the effect of 100 μM allylisothiocyanate; for IC50: read-out: IC50 TRPA1, against agonist AITC 100 μM
T1 construct: expressed in transfected cells; host or cells: HEK-293

human TRPV1 [2] = target: T2, human TRPV1 (Homo sapiens, UniProt Q8NER1); design: method as in PMID 21175579; details: cited from earlier work; for TRPV1 Efficacy (% IM 4 μM): percentage of the response to ionomycin 4 μM; for IC50: read-out: IC50 TRPV1
T2 construct: expressed in transfected cells; host or cells: HEK-293

rat TRPV2 [3] = target: T3, rat TRPV2 (Rattus norvegicus, UniProt Q9WUD2); design: method as in PMID 21175579, PMID 21726418; details: cited from earlier work
T3 construct: expressed in transfected cells; host or cells: HEK-293
T3 sequence (Q9WUD2 1-761): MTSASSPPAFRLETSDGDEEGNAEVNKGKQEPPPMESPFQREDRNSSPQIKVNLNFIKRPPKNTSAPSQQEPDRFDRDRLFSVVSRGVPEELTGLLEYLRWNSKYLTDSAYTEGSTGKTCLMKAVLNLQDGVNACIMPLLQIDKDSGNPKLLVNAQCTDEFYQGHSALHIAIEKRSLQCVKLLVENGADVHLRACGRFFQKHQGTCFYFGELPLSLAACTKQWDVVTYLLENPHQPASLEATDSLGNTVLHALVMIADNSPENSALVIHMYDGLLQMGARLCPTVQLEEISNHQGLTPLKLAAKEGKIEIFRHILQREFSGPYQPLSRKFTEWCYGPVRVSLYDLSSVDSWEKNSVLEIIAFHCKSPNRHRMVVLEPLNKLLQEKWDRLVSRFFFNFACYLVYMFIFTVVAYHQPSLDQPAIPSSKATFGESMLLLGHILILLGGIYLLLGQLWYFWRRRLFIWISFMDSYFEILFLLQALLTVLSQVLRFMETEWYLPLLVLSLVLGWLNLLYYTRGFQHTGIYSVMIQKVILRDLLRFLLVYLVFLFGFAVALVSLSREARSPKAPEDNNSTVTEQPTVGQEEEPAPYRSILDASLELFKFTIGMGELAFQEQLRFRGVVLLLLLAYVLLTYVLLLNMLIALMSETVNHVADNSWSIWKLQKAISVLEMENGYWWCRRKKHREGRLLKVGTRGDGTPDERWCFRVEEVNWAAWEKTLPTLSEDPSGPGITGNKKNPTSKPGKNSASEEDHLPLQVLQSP

rat TRPV3 = target: T4, rat TRPV3 (Rattus norvegicus, UniProt Q4QYD9); design: method as in PMID 21175579, PMID 21726418; details: cited from earlier work
T4 construct: expressed in transfected cells; host or cells: HEK-293
T4 sequence (Q4QYD9 1-791): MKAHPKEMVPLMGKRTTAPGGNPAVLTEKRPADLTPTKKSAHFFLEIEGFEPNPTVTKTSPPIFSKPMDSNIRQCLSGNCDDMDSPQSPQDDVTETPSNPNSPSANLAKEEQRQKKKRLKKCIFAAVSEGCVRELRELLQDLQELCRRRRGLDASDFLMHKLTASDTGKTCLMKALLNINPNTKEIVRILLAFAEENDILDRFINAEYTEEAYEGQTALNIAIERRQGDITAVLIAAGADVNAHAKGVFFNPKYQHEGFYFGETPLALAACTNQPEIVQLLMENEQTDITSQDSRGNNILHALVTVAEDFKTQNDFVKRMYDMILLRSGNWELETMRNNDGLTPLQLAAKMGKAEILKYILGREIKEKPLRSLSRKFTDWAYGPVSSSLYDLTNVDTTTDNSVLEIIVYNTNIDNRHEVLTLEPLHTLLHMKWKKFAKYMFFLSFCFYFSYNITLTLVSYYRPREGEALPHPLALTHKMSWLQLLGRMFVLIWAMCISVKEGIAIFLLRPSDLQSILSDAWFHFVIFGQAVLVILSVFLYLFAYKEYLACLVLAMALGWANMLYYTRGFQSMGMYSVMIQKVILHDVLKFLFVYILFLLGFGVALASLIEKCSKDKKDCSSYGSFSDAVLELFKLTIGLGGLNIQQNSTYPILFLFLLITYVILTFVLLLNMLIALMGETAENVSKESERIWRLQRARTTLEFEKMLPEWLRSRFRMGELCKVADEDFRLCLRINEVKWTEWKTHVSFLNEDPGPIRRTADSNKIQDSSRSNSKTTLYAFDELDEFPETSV

rat TRPV4 [4] = target: T5, rat TRPV4 (Rattus norvegicus, UniProt Q9ERZ8); design: method as in PMID 21175579, PMID 21726418; details: cited from earlier work
T5 construct: expressed in transfected cells; host or cells: HEK-293

rat TRPA1 [5] = target: T1, rat TRPA1; test: TRPA1-mediated elevation of intracellular Ca2+ (Fluo-4) in transfected HEK-293 cells; format: cell-based; details: for TRPA1 Efficacy (%ITC 100 μM): percentage of the effect of 100 μM allylisothiocyanate on [Ca2+]i, HEK-293
Protocol: (§1) Assays of rat TRPA1, TRPV2, TRPV3, TRPV4, and TRPM8 or human TRPV1 mediated elevation of intracellular Ca ^2+ in transfected HEK-293 cells were performed with a continuous monitoring of [Ca ^2+]i during the experiments. […] Cell fluorescence before and after the addition of various concentrations of test compounds was measured, normalizing the effects against the response to ionomycin (IM, 4 μM). The values of the effect on [Ca^2+]i in HEK-293 cells not transfected were used as baseline and subtracted from the values obtained from transfected cells. For TRPA1, agonist efficacy was expressed as a percentage of the effect on [Ca ^2+]i observed with 100 μM allylisothiocyanate. […] In the TRPV3 assay, TRPV3-expressing HEK293 cells were first sensitized with the structurally unrelated agonist 2-aminoethoxydiphenyl borate (100 μM). Antagonist/desensitizing behavior is evaluated against the agonist of the TRP analyzed by adding the compounds directly in the quartz cuvette 5 min before stimulation of cells with the agonist. […] Dose-response curve fitting (sigmoidal dose-response variable slope) and parameter estimation were performed with Graph-Pad Prism8 (GraphPad Software Inc., San Diego, CA, USA). All determinations were performed at least in triplicate.

human TRPV1 [6] = target: T2, human TRPV1; test: TRPV1-mediated elevation of intracellular Ca2+ (Fluo-4) in transfected HEK-293 cells; format: cell-based; details: for TRPV1 Efficacy (% IM 4 μM): percentage of the response to ionomycin 4 μM, HEK-293
Protocol: as §1

rat TRPM8 = target: T6, rat TRPM8 (Rattus norvegicus, UniProt Q8R455); test: TRPM8 antagonism of icilin-induced intracellular Ca2+ elevation (Fluo-4) in transfected HEK-293 cells; format: cell-based; details: IC50 TRPM8, antagonist; compound added 5 min before agonist icilin 0.25 μM
T6 construct: expressed in transfected cells; host or cells: HEK-293
Protocol: as §1

rat TRPV2 [7] = target: T3, rat TRPV2; test: TRPV2-mediated elevation of intracellular Ca2+ (Fluo-4) in transfected HEK-293 cells; format: cell-based
Protocol: as §1

rat TRPV4 [8] = target: T5, rat TRPV4; test: TRPV4-mediated elevation of intracellular Ca2+ (Fluo-4) in transfected HEK-293 cells; format: cell-based
Protocol: as §1

[9] = against agonist capsaicin 0.1 μM
[10] = percentage of the response to ionomycin 4 μM
[11] = percentage of the response to ionomycin 4 μM, HEK-293

T1 sequence (Q6RI86 whole entry): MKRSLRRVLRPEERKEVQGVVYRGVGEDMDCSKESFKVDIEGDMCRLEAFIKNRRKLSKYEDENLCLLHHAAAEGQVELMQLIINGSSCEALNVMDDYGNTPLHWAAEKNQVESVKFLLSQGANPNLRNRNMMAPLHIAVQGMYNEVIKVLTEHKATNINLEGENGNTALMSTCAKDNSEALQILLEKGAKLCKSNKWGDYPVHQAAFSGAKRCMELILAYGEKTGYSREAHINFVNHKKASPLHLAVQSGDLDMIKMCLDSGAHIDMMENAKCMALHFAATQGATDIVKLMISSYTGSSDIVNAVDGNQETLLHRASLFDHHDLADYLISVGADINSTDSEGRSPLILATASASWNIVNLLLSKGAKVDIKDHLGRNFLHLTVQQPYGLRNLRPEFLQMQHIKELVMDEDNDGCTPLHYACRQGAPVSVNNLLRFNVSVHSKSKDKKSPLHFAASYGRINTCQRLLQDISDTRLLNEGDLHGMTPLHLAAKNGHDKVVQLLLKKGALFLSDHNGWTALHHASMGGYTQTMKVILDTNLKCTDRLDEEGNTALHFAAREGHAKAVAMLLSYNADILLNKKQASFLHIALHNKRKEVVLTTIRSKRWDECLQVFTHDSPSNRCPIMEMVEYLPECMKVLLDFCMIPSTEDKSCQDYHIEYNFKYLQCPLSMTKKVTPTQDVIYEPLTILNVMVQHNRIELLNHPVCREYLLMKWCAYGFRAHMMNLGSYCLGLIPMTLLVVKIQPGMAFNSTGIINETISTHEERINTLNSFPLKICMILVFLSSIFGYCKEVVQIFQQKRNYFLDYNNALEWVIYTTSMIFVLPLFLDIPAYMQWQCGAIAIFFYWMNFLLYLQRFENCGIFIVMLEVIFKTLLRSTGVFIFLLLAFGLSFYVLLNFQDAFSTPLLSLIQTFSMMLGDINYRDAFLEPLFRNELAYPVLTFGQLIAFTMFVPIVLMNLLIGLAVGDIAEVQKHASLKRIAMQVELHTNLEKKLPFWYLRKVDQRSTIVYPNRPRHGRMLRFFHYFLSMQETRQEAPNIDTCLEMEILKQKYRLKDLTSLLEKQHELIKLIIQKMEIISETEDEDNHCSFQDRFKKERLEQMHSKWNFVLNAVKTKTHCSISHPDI
T2 sequence (Q8NER1 whole entry): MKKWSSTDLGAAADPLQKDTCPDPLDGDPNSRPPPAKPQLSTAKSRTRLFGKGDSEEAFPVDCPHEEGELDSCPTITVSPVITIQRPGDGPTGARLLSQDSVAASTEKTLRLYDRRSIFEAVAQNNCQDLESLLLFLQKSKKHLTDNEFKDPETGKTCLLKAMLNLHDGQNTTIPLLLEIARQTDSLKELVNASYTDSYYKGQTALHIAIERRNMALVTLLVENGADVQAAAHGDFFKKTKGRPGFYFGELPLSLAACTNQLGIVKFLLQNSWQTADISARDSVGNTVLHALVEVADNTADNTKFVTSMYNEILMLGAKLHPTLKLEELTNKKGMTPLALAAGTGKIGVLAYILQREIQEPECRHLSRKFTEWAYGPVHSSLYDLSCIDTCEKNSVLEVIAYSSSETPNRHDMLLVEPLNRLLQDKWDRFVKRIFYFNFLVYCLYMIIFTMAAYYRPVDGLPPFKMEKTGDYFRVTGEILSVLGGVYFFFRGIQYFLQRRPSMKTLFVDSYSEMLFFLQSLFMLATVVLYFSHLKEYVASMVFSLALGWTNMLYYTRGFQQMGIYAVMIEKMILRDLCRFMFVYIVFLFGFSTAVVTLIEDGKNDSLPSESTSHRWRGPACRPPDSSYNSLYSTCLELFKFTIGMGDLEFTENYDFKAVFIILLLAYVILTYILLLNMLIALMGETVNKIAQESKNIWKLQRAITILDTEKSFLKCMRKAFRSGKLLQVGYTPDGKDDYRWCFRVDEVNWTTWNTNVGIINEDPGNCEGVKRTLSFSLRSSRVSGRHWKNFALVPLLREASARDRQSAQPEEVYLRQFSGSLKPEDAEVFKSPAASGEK
T5 sequence (Q9ERZ8 whole entry): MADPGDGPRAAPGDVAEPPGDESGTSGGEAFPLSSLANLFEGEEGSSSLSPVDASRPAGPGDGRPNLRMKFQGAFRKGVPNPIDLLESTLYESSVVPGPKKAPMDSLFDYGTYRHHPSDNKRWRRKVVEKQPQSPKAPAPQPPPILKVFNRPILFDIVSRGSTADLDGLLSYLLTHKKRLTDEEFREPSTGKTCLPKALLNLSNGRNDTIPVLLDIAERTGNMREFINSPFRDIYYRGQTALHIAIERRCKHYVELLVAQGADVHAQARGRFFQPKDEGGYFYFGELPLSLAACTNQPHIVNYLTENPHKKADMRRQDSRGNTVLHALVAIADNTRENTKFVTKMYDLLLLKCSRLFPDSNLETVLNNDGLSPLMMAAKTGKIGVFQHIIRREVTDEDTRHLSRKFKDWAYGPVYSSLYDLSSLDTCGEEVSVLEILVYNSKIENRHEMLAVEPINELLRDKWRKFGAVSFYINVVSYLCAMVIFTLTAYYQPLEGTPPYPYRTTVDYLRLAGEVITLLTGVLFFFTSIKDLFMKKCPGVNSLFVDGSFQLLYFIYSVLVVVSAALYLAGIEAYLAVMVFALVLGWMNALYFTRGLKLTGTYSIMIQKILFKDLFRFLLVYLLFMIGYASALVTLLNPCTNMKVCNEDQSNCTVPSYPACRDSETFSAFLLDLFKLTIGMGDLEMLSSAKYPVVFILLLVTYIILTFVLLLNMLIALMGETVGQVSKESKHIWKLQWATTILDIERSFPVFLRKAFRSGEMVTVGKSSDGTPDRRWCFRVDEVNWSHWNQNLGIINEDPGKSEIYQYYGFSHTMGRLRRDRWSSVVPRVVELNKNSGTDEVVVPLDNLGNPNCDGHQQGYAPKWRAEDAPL
T6 sequence (Q8R455 whole entry): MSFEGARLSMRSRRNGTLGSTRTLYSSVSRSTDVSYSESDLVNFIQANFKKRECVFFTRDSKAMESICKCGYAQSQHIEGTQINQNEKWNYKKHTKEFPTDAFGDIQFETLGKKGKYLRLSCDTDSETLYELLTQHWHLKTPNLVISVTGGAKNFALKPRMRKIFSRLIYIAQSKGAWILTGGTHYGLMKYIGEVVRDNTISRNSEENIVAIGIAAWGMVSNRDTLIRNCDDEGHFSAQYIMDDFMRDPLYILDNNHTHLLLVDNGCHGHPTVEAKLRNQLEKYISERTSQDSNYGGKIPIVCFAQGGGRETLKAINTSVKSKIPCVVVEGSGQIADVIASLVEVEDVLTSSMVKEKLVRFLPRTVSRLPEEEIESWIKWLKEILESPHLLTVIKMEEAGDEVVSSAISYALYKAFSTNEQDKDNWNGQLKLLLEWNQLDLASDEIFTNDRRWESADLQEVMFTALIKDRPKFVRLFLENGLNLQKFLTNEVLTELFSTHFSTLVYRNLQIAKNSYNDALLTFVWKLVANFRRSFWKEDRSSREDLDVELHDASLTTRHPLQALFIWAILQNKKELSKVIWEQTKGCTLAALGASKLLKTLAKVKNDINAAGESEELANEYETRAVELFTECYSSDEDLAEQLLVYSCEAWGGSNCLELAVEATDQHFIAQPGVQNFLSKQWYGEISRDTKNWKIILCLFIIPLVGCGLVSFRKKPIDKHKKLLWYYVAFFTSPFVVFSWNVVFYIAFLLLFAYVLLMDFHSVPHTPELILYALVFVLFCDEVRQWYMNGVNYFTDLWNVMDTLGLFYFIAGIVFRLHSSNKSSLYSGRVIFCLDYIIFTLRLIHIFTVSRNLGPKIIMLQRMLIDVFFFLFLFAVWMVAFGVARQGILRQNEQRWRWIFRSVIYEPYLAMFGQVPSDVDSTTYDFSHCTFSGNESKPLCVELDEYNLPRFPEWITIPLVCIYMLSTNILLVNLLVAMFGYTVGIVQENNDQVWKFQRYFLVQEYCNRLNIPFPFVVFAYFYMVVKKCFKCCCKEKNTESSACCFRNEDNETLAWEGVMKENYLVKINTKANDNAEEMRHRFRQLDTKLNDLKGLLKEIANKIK

In the case of CCCCCc1cc(O)c2c(c1)OC(C)(C)c1ccc(C)cc1-2 [9a, cannabinol], the “TRPA1 Efficacy (%ITC 100 μM)” value (rat TRPA1 [1]) is given as 83.3 ± 12.0%, the IC50 (rat TRPA1 [1]) is given as 0.4 µM and the “TRPV1 Efficacy (% IM 4 μM)” value (human TRPV1 [2]) is given as <10 <10%. For the same compound, the IC50 (human TRPV1 [2]; [9]) was greater than 50 µM.
In the case of C=C(C)[C@@H]1CCC(C)=C[C@H]1c1c(O)cc(CCCCC)cc1O [1a, cannabidiol], the “TRPA1 Efficacy (%ITC 100 μM)” value (rat TRPA1 [1]) is given as 115.9 ± 4.6%, the IC50 (rat TRPA1 [1]) is given as 0.16 µM and the “IC50 TRPV1” value (human TRPV1 [2]; [9]) is given as “sub/low micromolar range”. The “TRPV1 Efficacy (% IM 4 μM)” value (human TRPV1 [2]) was 44.7 ± 0.02%, the IC50 (human TRPV1 [2]; [9]) was 0.6 µM and the “TRPV2 Efficacy (% IM 4 μM)” value (rat TRPV2 [3]; [10]) was 40.5 ± 1.6%. The IC50 (rat TRPV2 [3]; read-out: IC50 TRPV2, against agonist LPC 3 μM) was 4.5 µM, the “TRPV3 Efficacy (% IM 4 μM)” value (rat TRPV3; [10]) was 50.1 ± 4.8% and the IC50 (rat TRPV3; read-out: IC50 TRPV3, against agonist carvacrol 1 mM) was 0.9 µM. For the same compound, the EC50 (rat TRPV3; read-out: TRPV3 Potency EC50, half-maximal increase in [Ca2+]i) was 3.7 µM, the “TRPV4 Efficacy (% IM 4 μM)” value (rat TRPV4 [4]; [10]) was 16.7 ± 1.0% and the IC50 (rat TRPV4 [4]; read-out: IC50 TRPV4, against agonist 4αPDD 1 μM) was 1.1 µM. The EC50 (rat TRPV4 [4]; read-out: TRPV4 Potency EC50, half-maximal increase in [Ca2+]i) was 0.8 µM.
For CCCCCCC(C)(C)c1cc(O)c2c(c1)OC(C)(C)[C@@H]1CC=C(C)C[C@@H]21 [6b, Depentyl-α,α-dimethylheptyl-Δ^8-tetrahydrocannabinol], the EC50 (rat TRPA1 [5]) was 4.8 ± 1.1 µM, the IC50 (rat TRPA1 [5]) was 6 ± 0.9 µM and the “TRPA1 Efficacy (%ITC 100 μM)” value (rat TRPA1 [5]) was 124.2 ± 4.0%. For the same compound, the EC50 (human TRPV1 [6]) was greater than 100 µM, the IC50 (human TRPV1 [6]) was greater than 100 µM and the “TRPV1 Efficacy (% IM 4 μM)” value (human TRPV1 [6]) was 15.3%. For the same compound, the IC50 (rat TRPM8) was 39.9 ± 6.9 µM, the EC50 (rat TRPV2 [7]) was 0.25 ± 0.03 µM and the IC50 (rat TRPV2 [7]; IC50 TRPV2, antagonist/desensitizing, compound added 5 min before agonist CBD 2 μM) was 45.8 µM and > 50 µM. The “TRPV2 Efficacy (% IM 4 μM)” value (rat TRPV2 [7]; [11]) was < 10% and 10.5 ± 0.02%, the EC50 (rat TRPV4 [8]) was 16.1 ± 21.6 µM and the IC50 (rat TRPV4 [8]) was greater than 100 µM. For the same compound, the “TRPV4 Efficacy (% IM 4 μM)” value (rat TRPV4 [8]; [11]) was <10 <10% and 12.1 ± 0.2%.
In the case of CCCCCCC(C)(C)c1cc(O)c2c(c1)OC(C)(C)c1ccc(C)cc1-2 [9b, Depentyl-α,α-dimethylheptyl-cannabinol], the EC50 (rat TRPA1 [5]) is reported as 2.1 ± 0.9 µM, the IC50 (rat TRPA1 [5]) is reported as 3.2 ± 0.6 µM and the “TRPA1 Efficacy (%ITC 100 μM)” value (rat TRPA1 [5]) is reported as 132.3 ± 7.9%. For the same compound, the IC50 (human TRPV1 [6]) was greater than 100 µM, the “TRPV1 Efficacy (% IM 4 μM)” value (human TRPV1 [6]) was <10 <10% and the IC50 (rat TRPM8) was 0.98 ± 0.12 µM.
